Organism: Rattus norvegicus
Experiment: DrugMatrix - Regimen: Daily Repeat
Assay type: toxicity, organism-based, Sprague-Dawley
Design: regimen Daily Repeat, gender Male, age 6-8 weeks
Conditions: in vivo, iv, vehicle 100 % SALINE; for ABSOLUTE BASOPHIL / ABSOLUTE EOSINOPHIL / ABSOLUTE LYMPHOCYTE / ABSOLUTE MONOCYTE / ABSOLUTE SEGMENTED NEUTROPHIL / BASOPHIL / EOSINOPHIL / ERYTHROCYTE COUNT / HEMATOCRIT / HEMOGLOBIN / LEUKOCYTE COUNT / LYMPHOCYTE / MEAN CORPUSCULAR HEMOGLOBIN / MEAN CORPUSCULAR HEMOGLOBIN CONCENTRATION / MEAN CORPUSCULAR VOLUME / MONOCYTE / NEUTROPHIL / NUCLEATED RED BLOOD CELLS: tissue Blood; for ALANINE AMINOTRANSFERASE / ALKALINE PHOSPHATASE / ASPARTATE AMINOTRANSFERASE / BLOOD UREA NITROGEN / CARBON DIOXIDE / CHOLESTEROL / CREATINE PHOSPHOKINASE / CREATININE / GLUCOSE / LACTATE DEHYDROGENASE / LIPASE / SODIUM / TOTAL BILIRUBIN / TOTAL PROTEIN / URIC ACID: tissue Plasma
[1] = 0 mg/kg, 72 h, dose level Control, time 3 day
[2] = 0 mg/kg, 120 h, dose level Control, time 5 day
[3] = […], 72 h, dose 0.27 mg/Kg, dose level Low, time 3 day
[4] = […], 72 h, dose 2.7 mg/Kg, dose level High, time 3 day

COc1cccc2c1C(=O)c1c(O)c3c(c(O)c1C2=O)C[C@@](O)(C(=O)CO)C[C@@H]3O[C@H]1C[C@H](N)[C@@H](O)[C@H](C)O1 [EPIRUBICIN]
ABSOLUTE BASOPHIL [1]: 0 CELLS/uL | ABSOLUTE EOSINOPHIL [1]: 23.17 CELLS/uL | ABSOLUTE LYMPHOCYTE [1]: 12448.83 CELLS/uL | ABSOLUTE MONOCYTE [1]: 259.5 CELLS/uL | ABSOLUTE SEGMENTED NEUTROPHIL [1]: 1635.17 CELLS/uL | BASOPHIL [1]: 0% | EOSINOPHIL [1]: 0.17% | ERYTHROCYTE COUNT [1]: 5.35 x10E6/uL | HEMATOCRIT [1]: 34.85% | HEMOGLOBIN [1]: 13.72 G/DL | LEUKOCYTE COUNT [1]: 14.37 x10E3/uL | LYMPHOCYTE [1]: 86.5% | MEAN CORPUSCULAR HEMOGLOBIN [1]: 25.67 pg | MEAN CORPUSCULAR HEMOGLOBIN CONCENTRATION [1]: 39.38 G/DL | MEAN CORPUSCULAR VOLUME [1]: 65.2 fL | MONOCYTE [1]: 1.83% | NEUTROPHIL [1]: 11.5% | NUCLEATED RED BLOOD CELLS [1]: 0 /100WBC | ALANINE AMINOTRANSFERASE [1]: 56.5 u/L | ALKALINE PHOSPHATASE [1]: 334 u/L | ASPARTATE AMINOTRANSFERASE [1]: 85.5 u/L | BLOOD UREA NITROGEN [1]: 16.33 mg/dL | CARBON DIOXIDE [1]: 26.5 mmol/L | CHOLESTEROL [1]: 70.33 mg/dL | CREATINE PHOSPHOKINASE [1]: 339.5 u/L | CREATININE [1]: 0.18 mg/dL | GLUCOSE [1]: 155.17 mg/dL | LACTATE DEHYDROGENASE [1]: 382 u/L | LIPASE [1]: 9.5 u/L | SODIUM [1]: 143.87 MEQ/L | TOTAL BILIRUBIN [1]: 0.2 mg/dL | TOTAL PROTEIN [1]: 5.98 G/DL | URIC ACID [1]: 1.53 mg/dL | ABSOLUTE BASOPHIL [2]: 0 CELLS/uL | ABSOLUTE EOSINOPHIL [2]: 16.17 CELLS/uL | ABSOLUTE LYMPHOCYTE [2]: 10653.67 CELLS/uL | ABSOLUTE MONOCYTE [2]: 17.17 CELLS/uL | ABSOLUTE SEGMENTED NEUTROPHIL [2]: 746.33 CELLS/uL | BASOPHIL [2]: 0% | EOSINOPHIL [2]: 0.17% | ERYTHROCYTE COUNT [2]: 5.88 x10E6/uL | HEMATOCRIT [2]: 36.68% | HEMOGLOBIN [2]: 14.6 G/DL | LEUKOCYTE COUNT [2]: 11.43 x10E3/uL | LYMPHOCYTE [2]: 91.83% | MEAN CORPUSCULAR HEMOGLOBIN [2]: 24.85 pg | MEAN CORPUSCULAR HEMOGLOBIN CONCENTRATION [2]: 39.8 G/DL | MEAN CORPUSCULAR VOLUME [2]: 62.47 fL | MONOCYTE [2]: 0.17% | NEUTROPHIL [2]: 7.83% | NUCLEATED RED BLOOD CELLS [2]: 0 /100WBC | ALANINE AMINOTRANSFERASE [2]: 45.5 u/L | ALKALINE PHOSPHATASE [2]: 330.17 u/L | ASPARTATE AMINOTRANSFERASE [2]: 93.33 u/L | BLOOD UREA NITROGEN [2]: 18 mg/dL | CARBON DIOXIDE [2]: 25.5 mmol/L | CHOLESTEROL [2]: 73.5 mg/dL | CREATINE PHOSPHOKINASE [2]: 434 u/L | CREATININE [2]: 0.2 mg/dL | GLUCOSE [2]: 148.83 mg/dL | LACTATE DEHYDROGENASE [2]: 603.83 u/L | LIPASE [2]: 10 u/L | SODIUM [2]: 139.78 MEQ/L | TOTAL BILIRUBIN [2]: 0.15 mg/dL | TOTAL PROTEIN [2]: 6.1 G/DL | URIC ACID [2]: 2.02 mg/dL | ABSOLUTE BASOPHIL [3]: 0 CELLS/uL | ABSOLUTE EOSINOPHIL [3]: 28 CELLS/uL | ABSOLUTE LYMPHOCYTE [3]: 4991.67 CELLS/uL | ABSOLUTE MONOCYTE [3]: 38 CELLS/uL | ABSOLUTE SEGMENTED NEUTROPHIL [3]: 375.67 CELLS/uL | BASOPHIL [3]: 0% | EOSINOPHIL [3]: 0.67% | ERYTHROCYTE COUNT [3]: 4.95 x10E6/uL | HEMATOCRIT [3]: 31.43% | HEMOGLOBIN [3]: 12.5 G/DL | LEUKOCYTE COUNT [3]: 5.43 x10E3/uL | LYMPHOCYTE [3]: 91.67% | MEAN CORPUSCULAR HEMOGLOBIN [3]: 25.3 pg | MEAN CORPUSCULAR HEMOGLOBIN CONCENTRATION [3]: 39.8 G/DL | MEAN CORPUSCULAR VOLUME [3]: 63.57 fL | MONOCYTE [3]: 0.67% | NEUTROPHIL [3]: 7% | NUCLEATED RED BLOOD CELLS [3]: 0 /100WBC | ABSOLUTE BASOPHIL [4]: 0 CELLS/uL | ABSOLUTE EOSINOPHIL [4]: 0 CELLS/uL | ABSOLUTE LYMPHOCYTE [4]: 4049.67 CELLS/uL | ABSOLUTE MONOCYTE [4]: 29.33 CELLS/uL | ABSOLUTE SEGMENTED NEUTROPHIL [4]: 387.67 CELLS/uL | BASOPHIL [4]: 0% | EOSINOPHIL [4]: 0% | ERYTHROCYTE COUNT [4]: 5.35 x10E6/uL | HEMATOCRIT [4]: 33.77% | HEMOGLOBIN [4]: 13.47 G/DL | LEUKOCYTE COUNT [4]: 4.47 x10E3/uL | LYMPHOCYTE [4]: 90.67% | MEAN CORPUSCULAR HEMOGLOBIN [4]: 25.2 pg | MEAN CORPUSCULAR HEMOGLOBIN CONCENTRATION [4]: 39.87 G/DL | MEAN CORPUSCULAR VOLUME [4]: 63.03 fL

From ChEMBL document CHEMBL3885881, “DrugMatrix”
